The experiment concerns the target Xanthine dehydrogenase/oxidase (Bos taurus, UniProt P80457). Briefly: Inhibition of bovine xanthine oxidase assessed as reduction in uric acid formation at 100 uM using xanthine as substrate pretreated for 5 mins followed by substrate addition measured by UV-vis spectrophotometric method relative to control. The note with it: cattle.

By inhibition is commonly meant how much of the control response was suppressed.

Sequence of Xanthine dehydrogenase/oxidase (P80457 whole entry): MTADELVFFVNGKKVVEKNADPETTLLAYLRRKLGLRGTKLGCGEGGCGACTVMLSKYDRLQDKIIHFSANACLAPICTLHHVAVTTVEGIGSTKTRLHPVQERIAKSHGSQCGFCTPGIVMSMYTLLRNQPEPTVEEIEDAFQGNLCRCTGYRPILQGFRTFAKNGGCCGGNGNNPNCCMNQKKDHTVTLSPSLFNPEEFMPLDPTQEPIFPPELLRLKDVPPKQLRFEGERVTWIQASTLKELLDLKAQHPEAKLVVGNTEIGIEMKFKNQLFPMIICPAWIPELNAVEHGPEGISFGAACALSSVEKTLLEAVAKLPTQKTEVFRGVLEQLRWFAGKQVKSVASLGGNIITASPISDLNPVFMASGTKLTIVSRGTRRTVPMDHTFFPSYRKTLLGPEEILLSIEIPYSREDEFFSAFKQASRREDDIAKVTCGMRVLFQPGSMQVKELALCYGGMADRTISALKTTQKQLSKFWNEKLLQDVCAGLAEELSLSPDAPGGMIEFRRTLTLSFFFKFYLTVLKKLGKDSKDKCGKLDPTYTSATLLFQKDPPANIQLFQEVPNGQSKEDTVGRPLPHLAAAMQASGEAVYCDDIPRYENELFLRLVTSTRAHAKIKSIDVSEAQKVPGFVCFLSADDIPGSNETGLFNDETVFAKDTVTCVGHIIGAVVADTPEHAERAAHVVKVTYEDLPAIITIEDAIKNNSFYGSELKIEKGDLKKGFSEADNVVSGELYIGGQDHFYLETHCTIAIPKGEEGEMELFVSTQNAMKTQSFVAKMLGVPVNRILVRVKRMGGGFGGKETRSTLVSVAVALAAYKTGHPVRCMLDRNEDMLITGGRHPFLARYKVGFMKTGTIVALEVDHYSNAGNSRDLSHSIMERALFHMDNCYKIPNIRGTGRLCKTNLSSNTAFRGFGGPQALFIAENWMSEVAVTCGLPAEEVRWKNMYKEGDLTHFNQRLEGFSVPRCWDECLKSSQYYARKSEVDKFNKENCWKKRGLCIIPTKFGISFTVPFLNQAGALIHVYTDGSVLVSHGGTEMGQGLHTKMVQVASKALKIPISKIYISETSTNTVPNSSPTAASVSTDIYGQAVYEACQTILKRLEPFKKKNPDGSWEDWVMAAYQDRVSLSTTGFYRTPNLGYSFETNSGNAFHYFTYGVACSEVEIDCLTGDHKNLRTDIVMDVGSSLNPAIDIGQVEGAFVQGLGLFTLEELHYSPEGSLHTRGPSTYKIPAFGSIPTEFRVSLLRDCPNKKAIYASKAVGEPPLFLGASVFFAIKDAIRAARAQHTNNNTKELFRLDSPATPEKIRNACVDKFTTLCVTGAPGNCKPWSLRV

`COc1ccc(Nc2ncnc3c2C(c2cccc(Cl)c2)c2c(n[nH]c2C)O3)cc1` (configuration not stated): the inhibition at 100 µM came to 33.1%.

For the compound `COc1ccc(Nc2ncnc3c2C(c2cc(OC)c(OC)c(OC)c2)c2c(n[nH]c2C)O3)cc1` (configuration not stated), the inhibition at 100 µM worked out at 47.9%.

For the compound `COc1ccc(Nc2ncnc3c2C(c2cc(OC)c(OC)c(OC)c2)c2ccc4ccccc4c2O3)cc1` (configuration not stated), the inhibition at 100 µM was determined as 25.2%.

For `COc1ccc(Nc2ncnc3c2C(c2cccs2)c2c(c(=O)oc4ccccc24)O3)cc1` (configuration not stated), the inhibition at 100 µM turned out to be 58.8%.

In the case of `COc1ccc(Nc2ncnc3c2C(c2cccs2)C2=C(CCCC2=O)O3)cc1` (configuration not stated), the inhibition at 100 µM is 59.1%.

Regarding `COc1ccc(Nc2ncnc3c2C(c2ccc(O)cc2)c2ccc4ccccc4c2O3)cc1` (configuration not stated), the inhibition at 100 µM stood at 28.6%.

For `COc1ccc(Nc2ncnc3c2C(c2cccc4ccccc24)c2c(c(=O)oc4ccccc24)O3)cc1` (configuration not stated), the inhibition at 100 µM worked out at 10%.

Consider `COc1ccc(Nc2ncnc3c2C(c2cccc([N+](=O)[O-])c2)c2ccc4ccccc4c2O3)cc1` (configuration not stated), for which the inhibition at 100 µM was found to be 13%.

As for `COc1ccc(Nc2ncnc3c2C(c2ccc(F)cc2)c2ccc4ccccc4c2O3)cc1` (configuration not stated), the inhibition at 100 µM is 19%.

With `COc1ccc(Nc2ncnc3c2C(c2cccc4ccccc24)C2=C(CCCC2=O)O3)cc1` (configuration not stated), the inhibition at 100 µM is 12.1%.

As to `COc1ccc(Nc2ncnc3c2C(c2ccccc2OC)c2c(n[nH]c2C)O3)cc1` (configuration not stated), the inhibition at 100 µM turned out to be 55.2%.

On to `COc1ccc(Nc2ncnc3c2C(c2ccccc2)c2c(n[nH]c2C)O3)cc1` (configuration not stated), for which the inhibition at 100 µM worked out at 38.1%.

In the case of `COc1ccc(Nc2ncnc3c2C(c2ccc(O)c(O)c2)c2ccc4ccccc4c2O3)cc1` (configuration not stated), the inhibition at 100 µM stood at 36.5%.

As for `COc1ccc(Nc2ncnc3c2C(c2ccncc2)c2c(c(=O)oc4ccccc24)O3)cc1` (configuration not stated), the inhibition at 100 µM was 45.1%.

As to `COc1ccc(Nc2ncnc3c2C(c2cccc(Cl)c2)c2ccc4ccccc4c2O3)cc1` (configuration not stated), the inhibition at 100 µM is 17.1%.

Turning to `COc1ccc(Nc2ncnc3c2C(c2ccc(O)cc2)c2c(n[nH]c2C)O3)cc1` (configuration not stated), the inhibition at 100 µM was determined as 52.1%.

As for `COc1ccc(Nc2ncnc3c2C(c2ccc(OC)cc2)c2ccc4ccccc4c2O3)cc1` (configuration not stated), the inhibition at 100 µM came to 31.1%.

`COc1ccc(Nc2ncnc3c2C(c2cccc(C)c2)c2ccc4ccccc4c2O3)cc1` (configuration not stated): the inhibition at 100 µM was determined as 21.8%.

Consider `COc1ccc(Nc2ncnc3c2C(c2cc4ccccc4[nH]2)c2c(c(=O)oc4ccccc24)O3)cc1` (configuration not stated), for which the inhibition at 100 µM was determined as 18.4%.

`COc1ccc(Nc2ncnc3c2C(c2cccc(O)c2)c2ccc4ccccc4c2O3)cc1` (configuration not stated): the inhibition at 100 µM came to 27.4%.

Turning to `COc1ccc(Nc2ncnc3c2C(c2cccc(C)c2)c2c(n[nH]c2C)O3)cc1` (configuration not stated), the inhibition at 100 µM was 43.6%.

Take `COc1ccc(Nc2ncnc3c2C(c2ccc(Br)cc2)c2ccc4ccccc4c2O3)cc1` (configuration not stated): the inhibition at 100 µM worked out at 15.5%.

Consider `COc1ccc(Nc2ncnc3c2C(c2cc4ccccc4[nH]2)C2=C(CCCC2=O)O3)cc1` (configuration not stated), for which the inhibition at 100 µM turned out to be 19.3%.

On to `COc1ccc(Nc2ncnc3c2C(c2ccc(OC)c(OC)c2)c2ccc4ccccc4c2O3)cc1` (configuration not stated), for which the inhibition at 100 µM stood at 39.7%.

Take `COc1ccc(Nc2ncnc3c2C(c2ccncc2)C2=C(CCCC2=O)O3)cc1` (configuration not stated): the inhibition at 100 µM turned out to be 46%.

On to `COc1ccc(Nc2ncnc3c2C(c2ccc(O)c(OC)c2)c2ccc4ccccc4c2O3)cc1` (configuration not stated), for which the inhibition at 100 µM amounted to 33.2%.

On to `COc1ccc(Nc2ncnc3c2C(c2ccccc2)c2ccc4ccccc4c2O3)cc1` (configuration not stated), for which the inhibition at 100 µM turned out to be 20.5%.

Take `COc1ccc(Nc2ncnc3c2C(c2ccc([N+](=O)[O-])cc2)c2ccc4ccccc4c2O3)cc1` (configuration not stated): the inhibition at 100 µM was 10.5%.

As for `COc1ccc(Nc2ncnc3c2C(c2cccc(O)c2)c2c(n[nH]c2C)O3)cc1` (configuration not stated), the inhibition at 100 µM was 50.1%.

As to `COc1ccc(Nc2ncnc3c2C(c2ccccc2OC)c2ccc4ccccc4c2O3)cc1` (configuration not stated), the inhibition at 100 µM was 30%.

Regarding `COc1ccc(Nc2ncnc3c2C(c2ccc(F)cc2)c2c(n[nH]c2C)O3)cc1` (configuration not stated), the inhibition at 100 µM came to 35.7%.

With `COc1ccc(Nc2ncnc3c2C(c2ccc(Cl)cc2)c2ccc4ccccc4c2O3)cc1` (configuration not stated), the inhibition at 100 µM stood at 16.7%.

For the origin of these results see ChEMBL document CHEMBL4011597, “Synthesis, screening and docking of fused pyrano[3,2-d]pyrimidine derivatives as xanthine oxidase inhibitor” (Eur J Med Chem, 2017).
